Data published in patent US20240325370A1, “THERAPEUTIC REGIMENS OF A DEGRADER OF BRD9” (FOGHORN THERAPEUTICS INC., priority 2021, published 2024).
“Also recorded” adds a separate entry of the source.

Assays:
[1] = test system: SYO-1 synovial sarcoma xenograft; assay: Intermittent dosing schedules, IP, SYO-1 synovial sarcoma xenograft efficacy; format: in vivo, mice; conditions: for Day 21 Tumor Growth (%) / Day 21 Tumor Size (mm^3): SYO-1 tumor-bearing NOD SCID mice, Mean ± SEM
Text: (§1) The racemate, compound D1, which consists of ˜50% compound S-D1, was utilized in an SYO-1 (a synovial sarcoma xenograft) model to explore if similar efficacy is achievable with an intermittent dosing schedule. Due to technical feasibility and animal-welfare considerations, intraperitoneal (IP) administration was chosen over the IV route. […] Groups of female SYO-1 tumor-bearing NOD SCID mice (n=8/group) were intraperitoneally administered with vehicle or compound D1 for 21 days. Compound D1 was formulated as a suspension in 10% DMSO/40% PEG400/50% deionized water, volume/volume (v/v). […] To determine the level of modulation of BRD9 after each regimen, mice (n=4 mice/time-point) were euthanized and tumor samples were collected at different timepoints post-last dose (Day 21). […] BRD9 levels were assessed at 24, 72 and 168 hours (expected time points of trough plasma concentrations) for QD, BIW, and QW regimens respectively, as indicated in Table 8. Samples were analyzed using Western blot method.

BRD9 [2] = biological target: T1, BRD9 (Homo sapiens, UniProt Q9H8M2); assay: Drug washout experiments in SYO-1, ASKA and OCI-AML2 cell lines; conditions: followed by washout
T1 sequence (Q9H8M2 1-597): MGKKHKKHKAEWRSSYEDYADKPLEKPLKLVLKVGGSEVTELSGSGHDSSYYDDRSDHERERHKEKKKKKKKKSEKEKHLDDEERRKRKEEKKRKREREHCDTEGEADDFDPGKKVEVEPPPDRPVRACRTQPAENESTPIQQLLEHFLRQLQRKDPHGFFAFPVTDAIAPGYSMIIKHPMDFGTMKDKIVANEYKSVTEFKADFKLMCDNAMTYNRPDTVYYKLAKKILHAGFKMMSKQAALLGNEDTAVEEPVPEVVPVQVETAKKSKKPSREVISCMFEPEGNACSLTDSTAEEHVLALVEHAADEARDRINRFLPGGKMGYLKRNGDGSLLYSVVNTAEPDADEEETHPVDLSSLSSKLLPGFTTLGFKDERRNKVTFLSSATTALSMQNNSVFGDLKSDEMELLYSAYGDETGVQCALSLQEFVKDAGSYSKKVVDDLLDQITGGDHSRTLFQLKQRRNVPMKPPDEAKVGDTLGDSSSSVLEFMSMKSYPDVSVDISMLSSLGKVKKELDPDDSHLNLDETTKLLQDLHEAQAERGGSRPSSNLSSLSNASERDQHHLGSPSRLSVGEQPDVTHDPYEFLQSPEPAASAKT
Method: Drug Washout Experiments in SYO-1, ASKA, and OCI-AML2 Cell Lines. To assess the duration of BRD9 protein degradation and recovery post-drug washout, extensive washout experiments were conducted in three cell lines and BRD9 protein levels were assessed through western blot analyses. SYO-1 and ASKA are adherent synovial sarcoma cell lines. OCI-AML2 is an acute myeloid leukemia suspension cell line.
Adherent cells, SYO-1 and ASKA, grown in flasks to log phase growth, were washed with PBS and dissociated by adding TrypLE™ Express.
SYO-1 cells counted and seeded into 6-well plates at a density of 0.5×10^6 cells per well in 2 mL cell culture medium. Two wells were allocated per sample. Plates were incubated at 37° C. with 5% CO2 overnight. […] After 6 hours of incubation, 1×10^6 cells or 2 wells per treated group were harvested and frozen down at −80° C. for the 6-hour treatment sample. The remainder of the compound treated wells were washed four times by replacing all the drug-treated media with an equal volume of fresh media. After the final wash step, cells were incubated in 2 mL fresh media at 37° C. with 5% CO2 for the time points indicated. Washout steps were not performed on wells treated with 0.1% DMSO and cells were harvested at the time indicated.
Two wells were allocated per sample. Plates were incubated at 37° C. with 5% CO2 overnight. […]

BRD9 [3] = biological target: T1, BRD9; assay: BRD9 degradation in synovial sarcoma tumor in vivo (western blot); design: from tissue; host or cells: SYO-1 xenograft tumours in BALB/c nude or NOD SCID mice; species or system mice; conditions: 1 mg/kg i.p. for 4 weeks; up to 168 hours after dose
Method: Method: Mice were treated with D1, 1 mg/kg, i.p. for 4 weeks. Mice were then euthanized, and tumors were collected at 8 hours, 72 hours, and 168 hours post last dose. Tumors were lysed with 1×RIPA lysis buffer (Boston BioProducts, BP-115D) with protease and phosphatase protein inhibitor (Roche Applied Science #04906837001 & 05892791001). Equal amounts of lysate (30 ug) were loaded in 4-12% Bis-Tris Midi Protein Gels in 1×MOPS buffer; samples ran at 120 V for 120 minutes. Protein was transferred to membrane with TransBlot at 250 mA for 150 minutes, and then membranes were blocked with Odyssey blocking buffer for 1 hour at room temperature. Membranes were hybridized overnight in cold room with primary antibodies. Images acquired using Li-COR imaging system (Li-COR Biotechnology, Lincoln, Nebraska).

BRD9 [4] = biological target: T1, BRD9; assay: Tumor BRD9 modulation after each regimen, SYO-1 xenograft (western blot); format: in vivo, mice; design: from tissue; host or cells: SYO-1 xenograft tumours in BALB/c nude or NOD SCID mice
Text: as §1

[5] = Interconversion between Enantiomer 1 and Enantiomer 2 in cell medium; format: physicochemical; conditions: Enantiomer 2 dosing, cell medium 37° C.; for Mean peak area ratio of Enantiomer 1 over Enantiomer 2 peak area ratio: 0.2 µM
Method: For the assessment of interconversion between Enantiomer 1 and Enantiomer 2 in cell medium, the following test was performed. […] At designated time point, aliquot (50 μL) was taken and processed by the addition of 150 μL of acetonitrile containing 0.1% formic acid and internal standard for LC/MS-MS analysis. Peak areas of both Enantiomer 1 and Enantiomer 2 were determined for each sample using a chiral specific analytical method.

[6] = Plasma exposure of compound S-D1 after the last dose; format: in vivo, mice
Method: The objective of this study was to provide proof-of-concept of anti-tumor efficacy with intermittent dosing schedules for compound S-D1 by IV administration. Groups of female SYO-1 tumor-bearing NOD SCID mice (n=10/group) were dosed IV with vehicle, compound D1 or compound S-D1 for 24 days according to treatments and dosing schedules shown in Table 10. Compound D1 was formulated in 10% DMSO/40% PEG400/50% water and compound S-D1 was formulated in 20% SBECD in 5 mM citrate buffer, final pH was adjusted to 5 with 1 N NaOH. For the compound S-D1 treatment groups, plasma samples were collected at designated time points following the last dosing. Plasma samples were acidified to stabilize the compound right after collection and analyzed for compound S-D1 concentrations.

[7] = 0.1 mg/kg QD × 21 days IP, Day 21
[8] = 0.35 mg/kg BIW × 3 weeks IP, Day 21
[9] = 0.5 mg/kg QD × 21 days IP, Day 21
[10] = 0.7 mg/kg QW × 3 weeks IP, Day 21
[11] = 3.5 mg/kg QW × 3 weeks IP, Day 21

COc1cc(-c2cn(C)c(=O)c3cnc(N4CCC4)cc23)cc(OC)c1CN1CCC(CN2CCC3(CC2)CN(c2ccc4c(c2)C(=O)N(C2CCC(=O)NC2=O)C4)C3)CC1 (racemic) [Compound D1, 3-[6-(7-[[1-([4-[6-(azetidin-1-yl)-2-methyl-1-oxo-2,7-naphthyridin-4-yl]-2,6-dimethoxyphenyl]methyl)piperidin-4-yl]methyl]-2,7-diazaspiro[3.5]nonan-2-yl)-1-oxo-3H-isoindol-2-yl]piperidine-2,6-dione]
T/C (%) [1, 7]: 25.4% | TGI (%) [1, 7]: 74.6% | Day 21 Tumor Growth (%) ([1]; 0.1 mg/kg QD × 21 days IP): 535 ± 39% | Day 21 Tumor Size (mm^3) ([1]; 0.1 mg/kg QD × 21 days IP): 552 ± 59 mm^3 | T/C (%) [1, 8]: 49.0% | TGI (%) [1, 8]: 51.0% | Day 21 Tumor Growth (%) ([1]; 0.35 mg/kg BIW × 3 weeks IP): 1033 ± 64% | Day 21 Tumor Size (mm^3) ([1]; 0.35 mg/kg BIW × 3 weeks IP): 1179 ± 117 mm^3 | T/C (%) [1, 9]: 13.4% | TGI (%) [1, 9]: 86.6% | Day 21 Tumor Growth (%) ([1]; 0.5 mg/kg QD × 21 days IP): 284 ± 21% | Day 21 Tumor Size (mm^3) ([1]; 0.5 mg/kg QD × 21 days IP): 341 ± 57 mm^3 | T/C (%) [1, 10]: 45.1% | TGI (%) [1, 10]: 54.9% | Day 21 Tumor Growth (%) ([1]; 0.7 mg/kg QW × 3 weeks IP): 951 ± 115% | Day 21 Tumor Size (mm^3) ([1]; 0.7 mg/kg QW × 3 weeks IP): 1065 ± 107 mm^3 | T/C (%) [1, 11]: 18.0% | TGI (%) [1, 11]: 82.0% | Day 21 Tumor Growth (%) ([1]; 3.5 mg/kg QW × 3 weeks IP): 379 ± 43% | Day 21 Tumor Size (mm^3) ([1]; 3.5 mg/kg QW × 3 weeks IP): 449 ± 69 mm^3 | TGI compared to the vehicle control ([1]; all dosing regimens, IP, Day 21): significant TGI | continued BRD9 depletion after washout (BRD9 [2]; ASKA and OCI-AML2 cells, 15.6 nM for 6 h): reproduced | BRD9 depletion after washout (BRD9 [2]; SYO-1 cells treated with 15.6 nM for 6 h): continued depletion of BRD9 up to 7 days | degradation of BRD9 in tumor (BRD9 [3]): complete degradation of BRD9 target; also recorded: BRD9 inhibition | BRD9 PD effect in tumor at Cmin (BRD9 [4]; 0.35 mg/kg BIW or 0.7 mg/kg QW treatment): intermediate PD effect | BRD9 depletion in tumor at Cmin (BRD9 [4]; 3.5 mg/kg QW and 0.5 mg/kg QD treated groups): Nearly complete BRD9 depletion

COc1cc(-c2cn(C)c(=O)c3cnc(N4CCC4)cc23)cc(OC)c1CN1CCC(CN2CCC3(CC2)CN(c2ccc4c(c2)C(=O)N([C@H]2CCC(=O)NC2=O)C4)C3)CC1 (single isomer, unassigned) [Compound S-D1]
Mean peak area ratio of Enantiomer 1 over Enantiomer 2 peak area ratio ([5]; 0 h): 0.01 | Mean peak area ratio of Enantiomer 1 over Enantiomer 2 peak area ratio ([5]; 0.5 h): 0.06 | Mean peak area ratio of Enantiomer 1 over Enantiomer 2 peak area ratio ([5]; 2 h): 0.22 | Mean peak area ratio of Enantiomer 1 over Enantiomer 2 peak area ratio ([5]; 6 h): 0.60 | % Enantiomer 2 ([5]; 0 h): 99% | % Enantiomer 2 ([5]; 0.5 h): 95% | % Enantiomer 2 ([5]; 2 h): 82% | % Enantiomer 2 ([5]; 6 h): 63% | exposure in plasma versus dose ([6]; from 0.05 to […] IV): increased more than proportionally to dose | exposure in plasma versus dose ([6]; from 0.25 to 2 mg/kg IV): slightly less than proportionally to dose
